Measurements published in publication PMC8659110, “Preliminary Study of New Gallium-68 Radiolabeled Peptide Targeting NRP-1 to Detect Brain Metastases by Positron Emission Tomography” (Molecules, 2021).
Read-outs that look alike come from different tables or passages of the source. Where a SMILES comes first, the peptide text is derived from it. Primed or numbered codes have the meaning given here. Where no end group is shown, it is not given here. The star is where a group is joined. Cy5(nonsulfonated) = CN1C(=CC=CC=CC2=[N+](CCCCCC(=O)*)c3ccccc3C2(C)C)C(C)(C)c2ccccc21; NODAGA = O=C(O)CN1CCN(CC(=O)O)CCN(C(CCC(=O)*)C(=O)O)CC1; Cy5 = Cy5 fluorophore (fluorescent dye); NODAGA′ = chelator

Experiments:
NRP-1 protein = system: NRP-1 protein; parameters: method as in PMID 19464192, PMID 25645959; conditions: previous studies; cited from earlier work
MDA-MB-231 cells = test: Proliferation assay, real-time cell tracking (IncuCyte), MDA-MB-231; assay type: cell-based; conditions: for Doubling-time values (Time (h) ± SD): exponential phase
Procedure: (§1) The proliferation of MDA-MB-231 and HUVEC cells were investigated using a label-free, noninvasive IncuCyte® S3 live-cell imaging system (Sartorius, Germany). Cells were plated as described for metabolic activity placed in an incubator (Binder) at 37 °C. Cells were photographed at 2-h intervals using a 20× objective over several days. […] Phase–object confluence was calculated at each time point based on the segmentation of high-definition phase-contrast images using IncuCyte S3 2018B software and expressed in percentages. Experiments were performed in triplicate.
(§2) Cell doubling time (DT) was calculated using the following Equation (1):(1) DT=Tend−TstartLn2/LnCend−LnCstart where Tstart/Tend are the times at the start/end of the exponential growth phase. Cstart/Cend are the percentage of confluence of the cells at the start/end of the exponential growth phase.

[1] = Photophysical properties (absorption and fluorescence) in water; assay type: physicochemical; conditions: for Fluorescence quantum yield (φF): λex = 590 nm
Procedure: All reactions involving cyanine5 compounds were performed in the dark. Preparative reverse-phase high-performance liquid chromatography (HPLC) was performed on SPOT PREP Liquid Chromatography (ARMEN Instrument, Saint-Avé, France) with a Pursuit 5-C18 column (5 μm, 21.2 × 150 mm; Varian). Pure compounds obtained were analyzed accordingly by LC-MS on a Shimadzu LCMS-2020 monitored by a Diode Array Detector SPD-M20A (Shimadzu, Marne la Vallée, France) using a Pursuit 5-C18 column (4.6 × 150 mm; Varian) (Varian, Agilent Technologies, Santa Clara, CA, USA). Absorption spectra were recorded on a Perkin-Elmer Lambda EZ210 (Perkin-Elmer, Courtaboeuf, France) double-beam UV–visible spectrophotometer. Fluorescence spectra were recorded on a Fluorolog-3 spectrofluorometer FL3-222 (Horiba Jobin Yvon, Longjumeau, France) with a thermostated cell compartment (25 °C) using a 450-W Xenon lamp. The fluorescence quantum yield (φF) was determined using tetraphenyl porphyrin (TPP) solution in toluene as the fluorescence standard (φF = 0.11).

HUVEC cells = test: Proliferation assay, real-time cell tracking (IncuCyte), HUVEC; assay type: cell-based, human; conditions: for Doubling-time values (Time (h) ± SD): exponential phase
Procedure: as §1, §2

[2] = target: NRP-1 recombinant chimeric protein; test: Competitive binding assay with biotinylated VEGF-165 on recombinant NRP-1; conditions: for IC50: in the presence of heparin, 2 h at room temperature, read-out: IC50 ± SD (displacement of 50% of b-VEGF-165); for Concentration needed to decrease the binding of b-VEGF-165 to NRP-1: only at high concentration
Excerpt: (§3) We evaluated the binding capacity of compounds toward NRP-1 using two different techniques: (1) a competitive binding assay with biotinylated VEGF (b-VEGF-165), a natural ligand of NRP-1 immobilized on a microplate surface in the presence of heparin, which allowed calculating the IC50 (the concentration of compound that displaced 50% of b-VEGF-165), and (2) surface plasmon resonance (SPR), a sensitive, optical-based, label-free detection technology for the real-time monitoring of molecular interactions between injected analytes and ligands covalently attached to the surface of a sensor chip. This technique was used to calculate the KD. VEGF-165 was used as the positive control in these two techniques.
The binding of compounds for the NRP-1 protein was evaluated in terms of the half-maximal inhibitory concentration (IC50 values) through a competitive assay, as previously described. VEGF-165, the natural ligand of NRP-1, was used as the positive control. Briefly, the surfaces of Maxisorp microplates (Thermo Fisher Scientific, France) were coated with NRP-1 recombinant chimeric proteins (Bio-techne, France). The binding of compounds to NRP-1 was assessed using biotinylated VEGF-165 (b-VEGF-165) (AcroBioSystem, Interchim, France) in the presence of heparin (Bio-techne, France) in competition or not with various concentrations of compounds or unlabeled VEGF-165 (Bio-techne, France) as the positive control. After 2 h of incubation at room temperature, the plates were washed, and the amount of bound b-VEGF-165 was stained with streptavidin horseradish peroxidase conjugate (Bio-techne, France) and assayed. […] The results were expressed as the mean of the relative absorbance percentage to wells containing only blocking buffers of triplicate measurements. The affinities were estimated as the IC50 values (i.e., the concentration of compounds that displaced 50% of β-VEGF-165 binding) calculated using the one-site fit log-IC50 nonlinear analysis regression of GraphPad Prism 6 software (v 6.05, USA).

NRP-1 = target: NRP-1; parameters: method as in PMID 22372770; conditions: read-out: KD previously found; cited from earlier work
[3] = assay type: in vitro ADME, rodent
Procedure: (§4) The stability of [^68Ga]Ga-NODAGA-K(Cy5)DKPPR was performed in various media, final formulated media, and plasma.
For the stability in plasma, 100 µL of [^68Ga]Ga-NODAGA-K(Cy5)DKPPR was added to 400 µL of fresh rodent plasma and was incubated at 37 °C for 0, 30, 60, and 120 min. After incubation, the solutions were treated with 400 µL of acetonitrile to precipitate the proteins, vortexed for 1 min, and then centrifuged (2500 rpm, 980 G, 5 min). The supernatant layer was analyzed by analytical radio-HPLC.

[4] = assay type: physicochemical; conditions: 2 h
Procedure: as §4
The final [^68Ga]Ga-NODAGA-K(Cy5)DKPPR was kept at room temperature and analyzed by radio-HPLC at the end of the synthesis and 1 h, 2 h, and 3 h after manufacturing.

[5] = system: MDA-MB-231 tumor in the rat brain; parameters: species or system nude rat; conditions: in vivo
Procedure: Breast cells from the MDA-MB-231 lineage (MDA-MB-231 (ATCC® HTB-26)) were induced by the vascular injection of 2.5 × 10^5 cells resuspended in a volume of 50 µL of RPMI medium (Merck, Molsheim, France) into the animal’s internal carotid.
PET recordings were obtained with a camera dedicated to small animal studies (Inveon, Siemens Preclinical Solutions, Knoxville, TN, USA). After rats anesthetized with isoflurane, 50 MBq of [^68Ga]Ga-NODAGA-K(Cy5)DKPPR (1st day) were injected as a bolus via a lateral tail vein. […]
The uptake values are expressed in SUV (Standardized Uptake Values), which are standardized fixation values relative to the animal’s weight and injected activity. Tissue time activity curves (TTACs) for tumors and various organ activities were determined by average SUVs in volumes of interest (VOI), which were drawn with dedicated software (Inveon Research Workplace 4.1, Siemens®, Knoxville, USA) on static images encompassing the whole acquisition. […]

[6] = target: T1, recombinant rat NRP-1 protein (Rattus norvegicus, UniProt Q9QWJ9); test: Surface plasmon resonance (SPR) on immobilized recombinant NRP-1; assay type: binding; conditions: Figure S5, injected at 10 and 30 µM
T1 construct: purchased Bio-techne (France)
Excerpt: as §3
The equilibrium dissociation constant (KD) was evaluated using surface plasmon resonance, based on Gries et al.. All experiments were performed at 25 °C using the BIACORE T200 instrument (GE Healthcare Biacore, Uppsala, Sweden). Sensor surfaces and other Biacore consumables were purchased from GE Healthcare Biacore (USA). […]
They flowed at a rate of 30 µL/min for 300 s at 25 °C. […] The equilibrium response was recorded 5 s before the end of the compound injection (time window: 5 s). […] The KD value was determined by fitting the response (RU) versus analyte concentration (µM) curve to a simple 1:1 interaction model with the BiaEvaluation 3.2 software (GE Healthcare). […]

For “ATWLPPR [ligand peptide of NRP-1 from previous studies]”, the IC50 (NRP-1 protein) is given as 19 µM.
In the case of `CN1C(=CC=CC=CC2=[N+](CCCCCC(=O)NCCCC[C@H](NC(=O)CCC(C(=O)O)N3CCN(CC(=O)O)CCN(CC(=O)O)CC3)C(=O)N[C@@H](CC(=O)O)C(=O)N[C@@H](CCCCN)C(=O)N3CCC[C@H]3C(=O)N3CCC[C@H]3C(=O)N[C@@H](CCCNC(=N)N)C(=O)O)c3ccccc3C2(C)C)C(C)(C)c2ccccc21` (stereo partly shown) [^natGa-NODAGA-K(Cy5)DKPPR, metal not drawn] ({NODAGA}-K(Cy5(nonsulfonated))DKPPR-OH; C-terminus assumed), the “Doubling-time values (Time (h) ± SD)” value (MDA-MB-231 cells; MDA MB 231, 1 µM) is reported as 31 ± 1 h, the “Doubling-time values (Time (h) ± SD)” value (MDA-MB-231 cells; MDA MB 231, 10 µM) is reported as 32 ± 1 h and the “Proliferation of cells (confluence follow-up)” value (MDA-MB-231 cells; MDA-MB-231, 0–10 µM) is reported as “did not modify”. For the same compound, the “Molar extinction coefficient (ε)” value [1] was 44,552 L mol^−1 cm^−1, the “Fluorescence quantum yield (φF)” value [1] was 61% and the “Proliferation of cells (confluence follow-up)” value (HUVEC cells; 0–10 µM) was “did not modify”. For the same compound, the “Doubling-time values (Time (h) ± SD)” value (HUVEC cells; 1 µM) was 30 ± 3 h, the “Doubling-time values (Time (h) ± SD)” value (HUVEC cells; 10 µM) was 28 ± 2 h and the IC50 [2] was 0.1 µM.
With H-KDKPPR-OH [KDKPPR] the “Doubling-time values (Time (h) ± SD)” value (MDA-MB-231 cells; MDA MB 231, 1 µM) was 32 ± 1 h, the “Doubling-time values (Time (h) ± SD)” value (MDA-MB-231 cells; MDA MB 231, 10 µM) was 33 ± 2 h and the “Doubling-time values (Time (h) ± SD)” value (HUVEC cells; 1 µM) was 29 ± 2 h. The “Doubling-time values (Time (h) ± SD)” value (HUVEC cells; 10 µM) was 30 ± 2 h, the IC50 [2] was 2 ± 1 µM and the Kd (NRP-1) was 8.7 µM.
With [^68Ga]Ga-NODAGA-K(Cy5)DKPPR the “In vitro stability (time)” value [3] was > 120 min, the “In vitro stability, remaining stable” value ([3]; plasma, 2 h) was > 95% and the “In vitro stability, remaining stable” value [4] was > 95%. For the same compound, the “Time to plateau of normalized tumor TTAC after injection” value [5] was “roughly 10 min”.
With KRPKPD the IC50 [2] was 300 µM, the “Concentration needed to decrease the binding of b-VEGF-165 to NRP-1” value [2] was > 100 µM and the “SPR interaction toward NRP-1 (shape of curve)” value [6] was “weak affinity or a nonspecific interaction”.
In the case of “VEGF-165: natural ligand of NRP-1, positive control”, the “Shift of b-VEGF-165 binding to the receptor” value ([2]; used at 26 nM, positive control, data not shown) is reported as “completely shifted”.
In the case of `C[N+]1=C(C=CC=CC=C2N(CCCCCC(=O)ON3C(=O)CCC3=O)c3ccccc3C2(C)C)C(C)(C)c2ccccc21.[Cl-]` [Cy5-NHS, Cyanine5-NHS ester, reference compound], the “Molar extinction coefficient (ε)” value [1] is reported as 209,000 L mol^−1 cm^−1 and the “Fluorescence quantum yield (φF)” value [1] is reported as 27%.
With “^natGa-NODAGA-K(Cy5)RPKPD ({NODAGA′}-K(Cy5)RPKPD; also: NODAGA complexed with natGa)” the “Doubling-time values (Time (h) ± SD)” value (MDA-MB-231 cells; MDA MB 231, 1 µM) was 33 ± 1 h, the “Doubling-time values (Time (h) ± SD)” value (MDA-MB-231 cells; MDA MB 231, 10 µM) was 33 ± 3 h and the “Molar extinction coefficient (ε)” value [1] was 39,870 L mol^−1 cm^−1. The “Fluorescence quantum yield (φF)” value [1] was 79%, the “Doubling-time values (Time (h) ± SD)” value (HUVEC cells; 1 µM) was 27 ± 1 h and the “Doubling-time values (Time (h) ± SD)” value (HUVEC cells; 10 µM) was 28 ± 1 h. For the same compound, the “Concentration needed to decrease the binding of b-VEGF-165 to NRP-1” value [2] was > 100 µM and the “SPR interaction toward NRP-1 (shape of curve)” value [6] was “weak affinity or a nonspecific interaction”.
